Test system: mushroom tyrosinase
Experiment: Mushroom tyrosinase in vitro enzyme assay (absorbance at 492 nm)
Format: biochemical
Conditions: in vitro tyrosinase (mushroom) enzyme activity
Description: Enzyme assay. The mushroom tyrosinase was used for the bioassay. It was purchased from Sigma Chemical Co. (St. Louis, Mo.). The assay was performed by adding 200 microliters of reaction cocktail (mixture of potassium phosphate buffer 50 mM, pH 6.5, 10 ml; 1 mM tyrosine solution, 10 ml and deionized water, 9 ml) and 10 microliters of tested extract dissolved in ethanol at concentration of 1 mg/ml followed by 10 microliters of tyrosinase (1000 units/ml) to 96-well plate. After 2 min incubation at room temperature, the initial absorbance was read at 492 nm on the plate reader. Final absorbance values were read after 10 minutes. The enzyme activity was calculated from the differential values for absorbance and then converted into inhibitory activity. Kojic acid was used as standard at a concentration of 1 mg/ml dissolved in 95% ethanol.

O=c1cc(CO)occ1O [Kojic acid]
Inhibition at 1 mg/ml (sample 1 mg/ml in ethanol, tyrosine substrate, Table 1 experiment): 88%
Inhibition at 1 mg/ml (sample 1 mg/ml, extracts of different plant parts, Table 2 experiment): 86%
